Some test systems named below: 786-0; A498; A549; COLO 205; HCT-116; HCT-15; HOP-92; MCF7; OVCAR-4; OVCAR-5; PC-3; RPMI-8226; RXF 393; SK-MEL-28; SK-MEL-5; SK-OV-3; SW-620; U-251; UO-31; SR.
What all share (experiment): NCI tumour cell line growth inhibition, 48 h

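Growth conditions: 96-well plates. Treatment: test compound, 48 hours, 5 concentrations. Analysis: linear interpolation between bracketing concentrations; unreached endpoints set to highest concentration. Here, GI50 denotes the concentration required for 50% inhibition of growth.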 Calls of active or inactive are those of the source. Rule as the data show it: active = GI50 up to about 1.1 µM and inactive = higher. Some results are limits rather than exact numbers.

With `CC(CN(C)C)C(=O)c1ccccc1C(=O)O` (centres undefined), the GI50 in the assay on 786-0 is 24.2 µM (inactive); in the assay on A498, 40.8 µM (inactive); with A549, 41.1 µM (inactive); in the assay with COLO 205, 25.4 µM (inactive); with HCT-116, 32.1 µM (inactive); in the assay on HCT-15, 31.6 µM. Besides, the GI50 in the assay on HOP-92 is 41.9 µM (inactive); in the assay with MCF7, 35.6 µM (inactive); in the assay on OVCAR-4, 35.5 µM (inactive); in the assay with OVCAR-5, 52.4 µM (inactive); in the assay on PC-3 it was 23.9 µM (inactive); in the assay on RPMI-8226, 18.5 µM (inactive). Besides, the GI50 was 39.4 µM (inactive) in the assay with RXF 393; 31.2 µM (inactive) in the assay on SK-MEL-28; 28.5 µM (inactive) in the assay with SK-MEL-5; 39.4 µM (inactive) in the assay with SK-OV-3; 29.3 µM (inactive) in the assay on SW-620; 16.1 µM (inactive) in the assay with U-251. Moreover, the GI50 in the assay on UO-31 is 47.2 µM (inactive).

Turning to `COC(=O)C(CSSC[C@H](N/C(C)=C/C(C)=O)C(=O)OC)N/C(C)=C/C(C)=O` (some centres undefined), the GI50 in the assay on 786-0 was 32.2 µM (inactive); in the assay on A498 it was > 100 µM (inactive); in the assay on A549 it was 99.8 µM (inactive); in the assay with COLO 205, > 100 µM (inactive); with HCT-116, 27 µM (inactive); in the assay with HOP-92 it was 32.5 µM (inactive). Moreover, the GI50 with MCF7 was 26.9 µM (inactive); with OVCAR-4 it was > 100 µM (inactive); in the assay with OVCAR-5 it was 18.7 µM (inactive); in the assay with PC-3, 54.1 µM (inactive); in the assay with RPMI-8226, 21.3 µM (inactive); in the assay on RXF 393, 15.1 µM (inactive). For the same molecule, the GI50 in the assay with SK-MEL-28 is > 100 µM (inactive); in the assay with SK-MEL-5, 67.3 µM (inactive); with SK-OV-3, > 100 µM (inactive); in the assay on SW-620, 34.1 µM (inactive); in the assay with U-251, 33.3 µM (inactive); with UO-31 it was 47.5 µM (inactive).

Turning to `CC(C)(C)OC(=O)C1/C(=C/CBr)CN1C(=O)OC(C)(C)C` (centres undefined), the GI50 was 11.2 µM (inactive) in the assay with 786-0; 16.4 µM (inactive) with A498; 18.9 µM (inactive) in the assay with A549; 2.56 µM (inactive) with COLO 205; 11.4 µM (inactive) with HCT-116; 8.67 µM with HCT-15. Also, the GI50 in the assay on HOP-92 was 13.9 µM (inactive); in the assay on MCF7 it was 3.76 µM (inactive); in the assay on OVCAR-4, 2.86 µM (inactive); in the assay with OVCAR-5, 18.7 µM (inactive); with PC-3 it was 14.3 µM (inactive); with RPMI-8226, 3.98 µM (inactive). For the same molecule, the GI50 is 17.7 µM (inactive) with SK-MEL-28; 14.3 µM (inactive) in the assay on SK-MEL-5; 21.1 µM (inactive) with SK-OV-3; 5 µM (inactive) in the assay on SW-620; 18.8 µM (inactive) in the assay with UO-31.

`COc1cc2c(cc1O)C1CC(CC3CCCCN31)OC(=O)/C=C\c1ccc(O)c-2c1` (centres undefined): the GI50 is 32.4 µM (inactive) with 786-0; 12.9 µM (inactive) with A498; 57 µM (inactive) in the assay with A549; 25.2 µM (inactive) in the assay on COLO 205; 27.9 µM (inactive) in the assay on HCT-116; 36.9 µM with HCT-15. In addition, the GI50 was 15.5 µM (inactive) with HOP-92; 13.9 µM (inactive) with MCF7; 27.3 µM (inactive) with OVCAR-4; 58.3 µM (inactive) in the assay with OVCAR-5; 28.5 µM (inactive) in the assay with PC-3; 27 µM (inactive) in the assay with RPMI-8226. The GI50 was 28.3 µM (inactive) with SK-MEL-28; 16.8 µM (inactive) in the assay with SK-MEL-5; 31.2 µM (inactive) in the assay with SK-OV-3; 51.2 µM (inactive) in the assay on SW-620; 35 µM (inactive) in the assay on U-251; 25.9 µM (inactive) with UO-31.

For `COC(=O)C1=C(O)C(C(=O)OC)[C@]2(O)[C@H](C(=O)OC)[C@H]1C[C@@H](c1ccc(OC)cc1)[C@H]2C(=O)OC` (some centres undefined), the GI50 with 786-0 was 20.2 µM (inactive); in the assay on A498, 7.74 µM (inactive); in the assay with A549, 20.5 µM (inactive); in the assay with COLO 205, 35.2 µM (inactive); in the assay on HCT-116, 16.3 µM (inactive); in the assay on HCT-15, 21.9 µM. The GI50 in the assay on HOP-92 was 59.7 µM (inactive); in the assay on MCF7 it was 20.2 µM (inactive); in the assay on OVCAR-4, 19.8 µM (inactive); in the assay on OVCAR-5 it was 20.7 µM (inactive); with RPMI-8226 it was 12.4 µM (inactive); in the assay on RXF 393, 16 µM (inactive). The GI50 in the assay with SK-MEL-28 is 30.4 µM (inactive); in the assay on SK-MEL-5, 13.7 µM (inactive); in the assay on SK-OV-3, 29 µM (inactive); with SR, 16.1 µM (inactive); with SW-620 it was 17.7 µM (inactive); with U-251, 24.5 µM (inactive). Moreover, the GI50 in the assay on UO-31 is 11.3 µM (inactive).

For the molecule `CC1CCCC2=C1C(c1ccc(Cl)cc1)n1c(s/c(=C\c3ccc(Cl)cc3)c1=O)=N2` (centres undefined), the GI50 with 786-0 is > 100 µM (inactive); in the assay on A498, > 100 µM (inactive); in the assay with A549, > 100 µM (inactive); in the assay with COLO 205, > 100 µM (inactive); in the assay on HCT-116, > 100 µM (inactive); in the assay with HCT-15, above 100 µM. Further, the GI50 in the assay with HOP-92, in the assay with MCF7, in the assay on OVCAR-5, in the assay on PC-3, in the assay on RPMI-8226 and in the assay on RXF 393 was > 100 µM (inactive) throughout. Also, the GI50 in the assay with SK-MEL-28, in the assay with SK-MEL-5, in the assay with SK-OV-3, with SW-620, in the assay on U-251 and with UO-31 was > 100 µM (inactive) each time.

Regarding `O=C1C=C2CC[C@H]3[C@@H]4CC[C@H](OC(=O)c5cccc6cc7ccccc7nc56)[C@H]4CC[C@@H]3[C@H]2CC1`, the GI50 was > 100 µM (inactive) in the assay with 786-0; > 100 µM (inactive) in the assay with A498; > 100 µM (inactive) with A549; > 100 µM (inactive) in the assay on COLO 205; > 100 µM (inactive) with HCT-116; above 100 µM with HCT-15. For the same molecule, the GI50 in the assay with MCF7 was > 100 µM (inactive); in the assay on OVCAR-4 it was > 100 µM (inactive); in the assay on OVCAR-5, > 100 µM (inactive); in the assay on PC-3 it was > 100 µM (inactive); in the assay with RPMI-8226, 93.3 µM (inactive); in the assay with SK-MEL-28 it was > 100 µM (inactive). Moreover, the GI50 in the assay on SK-MEL-5 is > 100 µM (inactive); in the assay with SK-OV-3 it was > 100 µM (inactive); in the assay with SW-620, > 100 µM (inactive); in the assay on U-251, 99.3 µM (inactive); with UO-31 it was 79.6 µM (inactive).

Turning to `COC1=CC(c2ccc(Br)[nH]2)=N/C1=C/NCC(C)C`, the GI50 is 1.55 µM (inactive) in the assay on 786-0; 2.23 µM (inactive) in the assay with A498; 1.46 µM (inactive) with A549; 1.24 µM (inactive) in the assay on COLO 205; 1.44 µM (inactive) with HCT-116; 1.3 µM in the assay with HCT-15. Moreover, the GI50 with HOP-92 was 1.32 µM (inactive); in the assay on MCF7, 1.09 µM (active); with OVCAR-4, 1.86 µM (inactive); with OVCAR-5, 2.11 µM (inactive); in the assay with PC-3, 1.47 µM (inactive); in the assay on RPMI-8226, 0.412 µM (active). For the same molecule, the GI50 is 2.75 µM (inactive) in the assay on SK-MEL-28; 1.53 µM (inactive) in the assay with SK-MEL-5; 2.53 µM (inactive) with SK-OV-3; 1.51 µM (inactive) in the assay on U-251; 2.06 µM (inactive) in the assay with UO-31.

Regarding `N#Cc1nc(C#N)c(NC(=O)c2ccccc2C(=O)O)[nH]1`, the GI50 in the assay with 786-0, in the assay on A498, in the assay on A549, with COLO 205, in the assay with HCT-116 and with HOP-92 was > 100 µM (inactive) throughout. The GI50 in the assay with MCF7, in the assay on OVCAR-5, in the assay on PC-3, in the assay with RPMI-8226, in the assay on SK-MEL-28 and in the assay on SK-MEL-5 was > 100 µM (inactive) each time. The GI50 with SK-OV-3, with SW-620, in the assay with U-251 and in the assay with UO-31 was > 100 µM (inactive) throughout.

For `O=C(NC(=O)c1ccccc1)OC(c1ccccc1)C1CO1` (centres undefined), the GI50 is > 100 µM (inactive) in the assay with 786-0; > 100 µM (inactive) in the assay with A549; > 100 µM (inactive) in the assay on COLO 205; > 100 µM (inactive) with HCT-116; above 100 µM with HCT-15; > 100 µM (inactive) with MCF7. For the same molecule, the GI50 in the assay with OVCAR-4, in the assay on OVCAR-5, in the assay with PC-3, in the assay with RPMI-8226, in the assay with RXF 393 and in the assay with SK-MEL-28 was > 100 µM (inactive) throughout. The GI50 with SK-MEL-5, in the assay on SK-OV-3, in the assay with SW-620, in the assay on U-251 and in the assay with UO-31 was > 100 µM (inactive) throughout.

With `Cc1[nH]c2ncn(/N=C/c3ccccc3)c(=N)c2c1Cc1ccccc1`, the GI50 in the assay with 786-0 is > 100 µM (inactive); in the assay with A498 it was 60.8 µM (inactive); with A549, > 100 µM (inactive); with COLO 205, > 100 µM (inactive); with HCT-116, 87.3 µM (inactive); in the assay on HCT-15 it was above 100 µM. Further, the GI50 in the assay on HOP-92 is 42.4 µM (inactive); in the assay on MCF7, 79.6 µM (inactive); with OVCAR-4, > 100 µM (inactive); in the assay with OVCAR-5, > 100 µM (inactive); in the assay with PC-3 it was 45.7 µM (inactive); in the assay on RPMI-8226, > 100 µM (inactive). Besides, the GI50 in the assay with RXF 393 is > 100 µM (inactive); in the assay on SK-MEL-28, > 100 µM (inactive); in the assay on SK-OV-3 it was > 100 µM (inactive); in the assay on SW-620, > 100 µM (inactive); in the assay on U-251, 98.6 µM (inactive); in the assay with UO-31 it was > 100 µM (inactive).

These data come from ChEMBL document CHEMBL1201862, “PubChem BioAssay data set” (2004).
